Laboratory results as given in US9526739B2, “Compositions and methods to treat cardiac diseases” (University of Connecticut, priority 2010, dated 2016).
“And” between values parts separate entries of the source, which are not always exact repeats. Equal values may be shown once. “Also recorded” adds a separate entry of the source.

Assays:
[1] = test system: CSQ heart failure mice; test: Echocardiography-derived fractional shortening in CSQ heart failure mice after 28 days of subcutaneous minipump infusion; type: in vivo, mouse; details: for cardioprotection in the CSQ model (in words) / effect on echocardiography-derived FS / cardiac contractile function versus normal saline (in words): 3.3 μM, 28 days of infusion, CSQ mice; for FS in % in CSQ Mice: at 3.3 μM, subcutaneous Alzet minipump infusion, 28 days, vehicle control 13.78 ± 1.19% (n = 16)
Description: Two of the phosphonates, 4 and 9, were able to cause an improved FS as compared to vehicle (FIG. 1, Table 1) and in comparison to the reference nucleotide 3. […] Thus, in the saturated phosphonate series, the orientation of the phosphorous relative to the methanocarba ring was somewhat structurally permissive, although inclusion of an olefin in the spacer prevented the cardioprotective action. In 11, one OH group of the phosphonate has been replaced with CH3. This reduces the overall charge on the molecule and is intended to make it more bioavailable. Evidently, the binding site of the receptor requires both oxygens for the most favorable improvement in FS. Therefore, as summarized in FIG. 1, the most significant improvement in FS was associated with the saturated homologues containing a 2-Cl substitution and an unmodified phosphonate group, 4 and 9.
Compound 3 and its analogues were dissolved in phosphate-buffered saline, pH=7.4 at 3.3 μM (200 μL total volume), filtered for sterility for in vivo administration at 6 μL per day for 28 days via a mini-osmotic pump (Alzet) in the CSQ mice. Intact heart function in vivo was assessed by echocardiography following infusion of nucleotide- or vehicle

[2] = Stability in aqueous medium at pH 1.5 (simulated stomach acid); type: physicochemical; details: pH 1.5, over 24 hours
Description: (§1) The synthetic nucleotide analogue 3 activates the native cardiac P2X receptor, as indicated in electrophysiological experiments with normal cardiac myocytes and those that overexpress CSQ and based on its in vivo ability to improve the heart failure phenotype of these animals. The rigid carbocyclic ring system contained in this derivative stabilizes nucleotides toward the action of nucleotidases. […] In the present study, we have synthesized fully hydrolysis-resistant adenosine monophosphate derivatives based on phosphonate linkages.

[3] = test system: CSQ myocyte; details: similar to that by compound 1, characteristic of the P2X4 receptor; cited from earlier work
[4] = molecular target: T1, hP2Y1 receptor (Homo sapiens, UniProt P47900); details: initial characterization, previously reported; read-out: EC50, hP2Y1 receptor agonist, PLC; cited from earlier work
T1 construct: host or cells: said to be the same cell line as the calcium assay (1321N1 astrocytoma cells expressing hP2Y1)
T1 sequence (P47900 whole entry): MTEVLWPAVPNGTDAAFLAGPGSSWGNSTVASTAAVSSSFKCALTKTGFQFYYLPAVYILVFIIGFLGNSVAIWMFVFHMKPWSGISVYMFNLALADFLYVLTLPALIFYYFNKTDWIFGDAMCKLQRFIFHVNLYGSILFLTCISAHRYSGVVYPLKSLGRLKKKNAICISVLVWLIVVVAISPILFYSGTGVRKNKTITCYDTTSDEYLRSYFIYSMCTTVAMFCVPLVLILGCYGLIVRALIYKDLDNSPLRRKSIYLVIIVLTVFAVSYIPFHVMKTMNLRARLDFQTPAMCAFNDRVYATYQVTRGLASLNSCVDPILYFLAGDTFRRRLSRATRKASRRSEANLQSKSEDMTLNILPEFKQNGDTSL

[5] = test system: CSQ-overexpressing mouse; details: cited from earlier work
[6] = Hydrolysis on incubation at 37° C. with mammalian cell membranes (1321N1 astrocytoma cells); type: in vitro ADME; details: 1321N1 astrocytoma cell membranes
Description: as §1
Further, the 5′-phosphate 3 and the prodrug 9a (MRS2944) are stable to acidic conditions representative of stomach acid (pH 1.5). […] Without being held to theory, it is believed that the prodrug approach will allow the masked drug to pass through the stomach to be absorbed intact in the intestines, and for the charged phosphoryl group to remain intact until the free drug reaches the site of action in the heart. Therefore, the stable phosphonates would be suitable in this scheme. The cleavage of the prodrug derivatives is to occur in circulation prior to reaching the tissue site of action, because intracellular internalization would be undesirable. Therefore, many of the prodrug schemes that aim for penetration of the masked drug into the cells, i.e. for antiviral or anticancer application of nucleotide derivatives, would likely not be suitable here.

[7] = molecular target: T2, human P2Y1 receptor (Homo sapiens, UniProt P47900); test: FLIPR assay of calcium flux in 1321N1 astrocytoma cells stably expressing the human P2Y1 receptor; type: cell-based
T2 construct: T. K. Harden, University of North Carolina School of Medicine; host or cells: 1321N1 human astrocytoma cells
T2 sequence (P47900 whole entry): as above
Description: The phosphonate derivatives were tested in a FLIPR assay of calcium flux induced in 1321N1 astrocytoma cells stably expressing the human P2Y1 receptor.
Cells were grown overnight in 100 ml of medium in 96-well flatbottom plates at 37° C. at 5% CO2 or until they reached ˜80% confluency. The calcium-4 assay kit (Molecular Devices, Sunnyvale, Calif.) was used as directed with no washing of cells. Cells were loaded with 40 mL dye with probenecid in each well and incubated for 1 h at rt. The compound plate was prepared with dilutions of various compounds in Hank's Buffer at pH 7.2. Samples were run in duplicate with a FLIPR-Tetra (Molecular Devices) at rt. Cell fluorescence (excitation=485 nm; emission=525 nm) was monitored following exposure to a compound. Increases in intracellular calcium are reported as the maximum fluorescence value after exposure minus the basal fluorescence value before exposure.

[8] = test system: aorta ring preparations; details: cited from earlier work
[9] = test system: CSQ heart failure mice; test: Echocardiography (FS, LV wall thickness) in CSQ heart failure mice after 14 days of infusion; details: for cardioprotection in CSQ mice (in words) / effect on LV fractional shortening versus normal saline (in words): 14 days (two-week) infusion; for FS in % in CSQ Mice: at 10μM, 14 days of infusion, vehicle control 7.13 ± 1.49% (n = 4), phenotypically more severe CSQ mice than in Table 1; for prevention of LV wall thinning in heart failure (in words): two-week infusion
[10] = test system: control 1321N1 astrocytoma cells; test: Intracellular Ca2+ response in control 1321N1 astrocytoma cells; type: cell-based, human; details: 10 μM, untransfected control 1321N1 astrocytoma cells
[11] = test system: mouse cardiac myocytes; details: voltage clamp; cited from earlier work
[12] = 2-week infusion, CSQ mice, NS-infused 0.450±0.007 mm, P<0.05

## Nc1nc(Cl)nc2c1ncn2[C@H]1[C@H](O)[C@H](O)C2(CCP(=O)(O)O)C[C@H]12 (stereo partly drawn) [Compound 9]
[1]
  cardioprotection in the CSQ model (in words): clearly protective in vivo
  effect on echocardiography-derived FS / cardiac contractile function versus normal saline (in words): improved FS; also recorded: able to enhance cardiac contractile function
  FS in % in CSQ Mice: 19.26% and 19.26 ± 1.23%

## CP(=O)(O)CC12C[C@@H]1[C@@H](n1cnc3c(N)nc(Cl)nc31)[C@H](O)[C@@H]2O (stereo partly drawn) [Compound 11, (1′S,2′R,3′S,4′R,5′S)-4′-(6-Amino-2-chloropurin-9-yl)-2′,3′-dihydroxy-1′-(methylphosphonicacid)-bicyclo[3.1.0]hexane]
[1]
  effect on echocardiography-derived FS / cardiac contractile function versus normal saline (in words): lower FS values
  FS in % in CSQ Mice: 15.0 ± 1.2%

## Nc1nc(Cl)nc2c1ncn2[C@H]1[C@H](O)[C@H](O)C2(COP(=O)(O)O)C[C@H]12 (stereo partly drawn) [Compound 3, (1′S, 2′R,3′S,4′R,5′S)-4-(6-amino-2-chloro-9H-purin-9-yl)-1-[phosphoryloxymethyl]bicyclo[3.1.0]hexane-2,3-diol]
[2]
  stability to acidic conditions: stable
[3]
  current in the CSQ myocyte: induced a current
[4]
  EC50: 1.89 µM
[5]; Alzet mini-osmotic pump
  longevity compared to vehicle-injected mice: significantly increased longevity
[5]; chronic administration
  cross-section area of the cardiac myocytes: decreases
  heart weight/body weight ratio: decreases
[5]; chronically administered
  hypertrophic and heart failure phenotype: rescued the hypertrophic and heart failure phenotype
[6]
  hydrolysis in the presence of mammalian cell membranes: considerable hydrolysis
[1]
  FS in % in CSQ Mice: 15.47 ± 1.15%
[7]; 1321-N1, read-out: maximal effect relative to the full agonist 2-MeSADP, hP2Y1 calcium flux
  Emax: ~80%
[7]; 1321N1 cells stably expressing hP2Y1, FLIPR-Tetra, n=3, read-out: EC50, Ca2+ flux, hP2Y1 receptor
  EC50: 0.722 ± 0.055 µM
[8]
  vasodilator action: inability to dilate aortic rings; also recorded: devoid of any vasodilator action

## Nc1nc(I)nc2c1ncn2[C@H]1[C@H](O)[C@H](O)C2(CP(=O)(O)O)C[C@H]12 (stereo partly drawn) [Compound 7a, (1′S,2′R,3′S,4′R,5′S)-4′-(6-Amino-2-iodoropurin-9-yl)-2′,3′-(dihydroxy)-1′-(phosphonomethylene)-bicyclo[3.1.0]hexane]
[9]; CSQ mice
  cardioprotection in CSQ mice (in words): abolished protection; also recorded: not protective
  effect on LV fractional shortening versus normal saline (in words): did not improve FS; also recorded: lower FS values
  prevention of LV wall thinning in heart failure (in words): did not improve FS or prevent LV wall thinning
[9]
  FS in % in CSQ Mice: 10.33 ± 1.77%

## Nc1nc(Cl)nc2c1ncn2[C@H]1[C@H](O)[C@H](O)C2(/C=C/P(=O)(O)O)C[C@H]12 (stereo partly drawn) [Compound 7, (1′S,2′R,3′S,4′R,5′S)-4′-(6-Amino-2-chloropurin-9-yl)-2′,3′-(dihydroxy)-1′-[(E)-phosphonoethenyl]-bicyclo[3.1.0]-hexane]
[1]
  cardioprotection in the CSQ model (in words): not protective
  effect on echocardiography-derived FS / cardiac contractile function versus normal saline (in words): lower FS values
  FS in % in CSQ Mice: 12.12 ± 1.2%
[9]; CSQ mice
  effect on LV fractional shortening versus normal saline (in words): did not improve FS
  prevention of LV wall thinning in heart failure (in words): did not improve FS or prevent LV wall thinning

## Nc1ncnc2c1ncn2[C@H]1[C@H](O)[C@H](O)C2(CCP(=O)(O)O)C[C@H]12 (stereo partly drawn) [Compound 10]
[1]
  cardioprotection in the CSQ model (in words): not protective
  effect on echocardiography-derived FS / cardiac contractile function versus normal saline (in words): lower FS values; also recorded: did not improve the contractile function
  FS in % in CSQ Mice: 11.15 ± 1.44%

## CSc1nc(N)c2ncn([C@@H]3O[C@H](COP(=O)(O)OP(=O)(O)O)[C@@H](O)[C@H]3O)c2n1 [Compound 2-MeSADP, 2-MeSADP]
[10]
  change in intracellular Ca2+ in control cells: no change in intracellular Ca^2+

## Nc1nc(Cl)nc2c1ncn2[C@H]1[C@H](O)[C@H](O)C2(CP(=O)(O)O)C[C@H]12 (stereo partly drawn) [Compound 4, (1′S,2′R,3′S,4′R,5′S)-4′-(6-Amino-2-chloropurin-9-yl)-2′,3′-(dihydroxy)-1′-(phosphonomethylene)-bicyclo[3.1.0]hexane]
[1]
  cardioprotection in the CSQ model (in words): active
  effect on echocardiography-derived FS / cardiac contractile function versus normal saline (in words): increased shortening of both the septum and left ventricular (LV) free wall; also recorded: able to improve in vivo cardiac contractile performance; also recorded: improved echocardiographically derived FS
  FS in % in CSQ Mice: 20.25% and 20.25 ± 1.19%

## Nc1ncnc2c1ncn2[C@H]1[C@H](O)[C@H](O)C2(/C=C/P(=O)(O)O)C[C@H]12 (stereo partly drawn) [Compound 8, (1′S,2′R,3′S,4′R,5′S)-4′-(6-Aminopurin-9-yl)-2′,3′-(dihydroxy)-1′-[(E)-phosphonoethenyl]-bicyclo[3.1.0]hexane]
[1]
  cardioprotection in the CSQ model (in words): not protective
  effect on echocardiography-derived FS / cardiac contractile function versus normal saline (in words): lower FS values
  FS in % in CSQ Mice: 13.88 ± 2.12%

## Nc1ncnc2c1ncn2[C@H]1[C@H](O)[C@H](O)C2(CP(=O)(O)O)C[C@H]12 (stereo partly drawn) [Compound 5, (1′S,2′R,3′S,4′R,5′S)-4′-(6-Aminopurin-9-yl)-2′,3′-(dihydroxy)-1′-(phosphonomethylene)-bicyclo[3.1.0]hexane]
[1]
  FS in % in CSQ Mice: 16.23 ± 0.93%

## CNc1nc(I)nc2c1ncn2[C@H]1C[C@H](OP(=O)(O)O)[C@]2(COP(=O)(O)O)C[C@H]12 [MRS2500]
[11]
  block of the membrane current evoked by 3: could not block the membrane current evoked by 3

## CCOP(=O)(CC12C[C@@H]1[C@@H](n1cnc3c(N)nc(Cl)nc31)[C@H](O)[C@@H]2O)OCC (stereo partly drawn) [Compound 9a, Diethyl-(1′S,2′R,3′S,4′R,5′S)-4′-(6-amino-2-chloropurin-9-yl)-2′,3′-(hydroxy)-bicyclo[3.1.0]hexane phosphonate]
[2]
  stability to acidic conditions: stable
[6]
  hydrolysis in the presence of mammalian cell membranes: considerable hydrolysis
[9]; CSQ mice
  cardioprotection in CSQ mice (in words): not protective
  effect on LV fractional shortening versus normal saline (in words): did not improve FS
  prevention of LV wall thinning in heart failure (in words): did not improve FS or prevent LV wall thinning
[9]
  FS in % in CSQ Mice: 8.58 ± 2.09%

## Nc1nc(Cl)nc2c1ncn2[C@H]1[C@H](O)[C@H](O)C2(CSP(=O)(O)O)C[C@H]12 (stereo partly drawn) [Compound 4a]
[9]; [12]
  LV posterior wall thickness: 0.493±0.016 mm
  LV septal wall thickness: 0.492±0.012 mm
[9]; CSQ mice
  cardioprotection in CSQ mice (in words): could protect the CSQ mice
[9]
  FS in % in CSQ Mice: 14.33 ± 3.77%
